The values that follow come from patent US12274725B2, “Zika virus strains for treatment of glioma” (priority 2017, dated 2025).

The test system of one series is GSC lines (387 and 3565). The series can be described thus: Temozolomide cytotoxicity assay. It counts as cell-based, human. As to conditions: 7 days. The method, then: Two GSC lines (387 and 3565) were treated with indicated concentrations of temozolomide for 7 days. Relative cell number was assayed by CellTiter-Glo on day 7 and normalized to PBS control.
GSCs were plated at 1,000 cells/well in 96-well tissue culture treated plates (TPP) and allowed to attach overnight. For viral infection and growth inhibition assays, wild-type ZIKV-Dakar, ZIKV-Brazil, or mouse adapted ZIKV-Dakar were used at an MOI of 5. For combined drug+virus therapy experiments, wild-type parental ZIKV-Cambodia and its derivative ZIKV-E218A were used for infection. Temozolomide (TMZ, Sigma) was dissolved in PBS and diluted in Neurobasal complete media. ZIKV was added at an MOI of 5 by itself or 4 h before TMZ (250 μM) addition. Cell supernatants were stored at −80° C. for subsequent analysis.

A further series has as its system recurrent GBM. As to conditions: cited from earlier work.

As to `Cn1nnc2c(C(N)=O)ncn2c1=O` [TMZ, Temozolomide], the “effective TMZ concentration” value in the series on GSC lines (387 and 3565) worked out at 250 µM. Turning to “nivolumab: immune checkpoint inhibitor tested in CheckMate 143”, in the series with recurrent GBM (in vivo), the safety in patients entry is listed as “safe”. Moreover, the overall response rate result in the series on recurrent GBM (recurrent GBM) is given as “lower than the current standard, bevacizumab”.
